Paper PMC9918186, “Interaction of Positively Charged Oligopeptides with Blood Plasma Proteins” (International Journal of Molecular Sciences, 2023)

Columns and labels:
[1] = molecular target: bovine serum albumin (BSA) (Bos taurus, UniProt P02769); assay: Site-marker displacement (phenylbutazone, ibuprofen) on BSA, fluorescence; assay type: binding; parameters: purchased Sigma Aldrich; settings: 297 K, BSA 5.0 µM, marker 10.0 µM
Experimental: To check if L1–L3 bind to BSA at the two Sudlow drug sites (site 1 and 2 [34, 60]), displacement studies were conducted by using phenylbutazone (PHB) and ibuprofen (IBP) as site probes. […] The fluorescence emission spectra of BSA and site markers during the titration of L1–L3 were recorded. The experimental data were analyzed using Equation (3). Binding constants in the presence of site markers were calculated and compared with Kb without PHB or IBP.
Concentrations of BSA and site markers were set at 5.0 × 10^−6 and 10.0 × 10^−6 moldm^−3, respectively.

BSA = molecular target: T1, BSA (Bos taurus, UniProt P02769); assay: CD spectroscopy, secondary structure of BSA with peptide; parameters: species or system bovine
T1 construct: purchased Sigma Aldrich
T1 sequence (P02769 25-607): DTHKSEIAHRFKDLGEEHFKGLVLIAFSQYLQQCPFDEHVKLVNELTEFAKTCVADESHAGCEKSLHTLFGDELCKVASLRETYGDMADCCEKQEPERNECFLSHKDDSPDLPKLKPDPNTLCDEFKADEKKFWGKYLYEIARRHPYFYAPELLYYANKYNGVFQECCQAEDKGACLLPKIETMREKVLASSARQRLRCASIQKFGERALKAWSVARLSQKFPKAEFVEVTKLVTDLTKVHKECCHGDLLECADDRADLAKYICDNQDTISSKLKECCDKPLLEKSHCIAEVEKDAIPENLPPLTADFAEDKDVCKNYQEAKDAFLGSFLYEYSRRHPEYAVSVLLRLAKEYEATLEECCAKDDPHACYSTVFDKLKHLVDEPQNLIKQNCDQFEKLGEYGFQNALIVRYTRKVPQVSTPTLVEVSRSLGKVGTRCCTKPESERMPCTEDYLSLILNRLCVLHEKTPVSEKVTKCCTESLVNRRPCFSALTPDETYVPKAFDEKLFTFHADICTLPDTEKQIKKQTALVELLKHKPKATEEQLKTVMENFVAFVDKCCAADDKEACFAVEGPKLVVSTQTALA
Experimental: Circular dichroism spectroscopy, similar to fluorescence and FTIR spectroscopies, is a useful method to determine the changes in the secondary structure of proteins in case of the presence of compounds that can interact with protein molecules. Therefore, in this study, the CD spectra for BSA protein and GGF fraction, in the absence and presence of analyzed peptides L1, L2, and L3, were measured (Figure 3). We wanted to check the changes in the course of the spectrum after adding every portion of the analyzed peptides, from 1:0 to 1:1.5 protein to L1–L3 molar ratios.
Circular dichroism (CD) spectroscopy was performed using the Jasco J-1500 magnetic circular dichroism spectrometer (JASCO International CO., Tokyo, Japan). All measurements for the protein solutions in the absence and presence of the analyzed peptides L1, L2, and L3 were made at room temperature under simulated physiological conditions in pH 7.4, in phosphate buffer as a solvent. The phosphate buffer not only controls the stable pH but also imitates the biological environments. However, its use leads to some limitations for CD measurements due to containing NaCl and KCl. The spectra were baseline corrected (phosphate buffer was used as a baseline) and were measured in the range of 205–250 nm at a scan rate speed of 50 nm/min, with a response time of 1 s, and a 10 mm or 5 mm path length for BSA and GGF, respectively. The concentrations of proteins and analyzed peptides were 1 × 10^−6 mol/dm^3 and 1 × 10^−3 mol/dm^3, respectively. Experiments were performed with protein to ligand molar ratios: 1:0, 1:0.25, 1:0.5, 1:0.75, 1:1, and 1:1.5. In total, 3 cm^3 of a solution of each protein was titrated by successive additions of analyzed peptides. The results were analyzed by CD Multivariate Calibration Creation and CD Multivariate SSE programs (JASCO International CO., Tokyo, Japan), with the conversion of protein concentrations for mean residue molar concentrations.

[2] = system: γ-globulin fraction (GGF); assay: Fluorescence quenching of GGF by peptides L1–3; assay type: binding; settings: for Stern–Volmer constant Ksv / binding constant Kb / logKb: GGF 1.0 µM, phosphate buffer; for Stern–Volmer constant Ksv: peptide 0.25–2.0 µM, λex 280 nm; for logKb: double log regression; for quenching rate constant kq: from Ksv with τ0 10^−8 s assumed
Experimental: Fluorescence spectroscopy was carried out to characterize the mechanism of the interaction between three plasma proteins, BSA, AAG, and GGF, with the studied peptides. The fluorescence spectra of protein were collected during titration of L1–L3. The excitation wavelength was set at λ = 280 nm (both Trp and Tyr residues were excited).
To confirm this, the fluorescence data were further analyzed by the Stern–Volmer Equation (1) after correction due to the infer filter effect (2):(1) F0/F=1+kqτ[Q]=1+KSV (2) Fcorr=Fobs10^(Aex+Aem)/2 where F0 and F are the fluorescence intensities (after correction) of the protein and protein in the presence of L1–3, respectively, kq is the quenching rate constant, τ0 the average lifetime, [Q] is the L1–3 concentration, Ksv is the Stern–Volmer constant, and Fcorr, and Fobs are the corrected and observed fluorescence intensities, respectively. Aex and Aem are the absorbance values at excitation and emission wavelengths, respectively. A linear regression fit was used to calculate the value of the Stern–Volmer constant (Ksv). Then, assuming the average lifetime of the fluorophore in the excited state for a biomolecule as 10^−8 s, the quenching rate constant (kq) was computed. For dynamic quenching, the maximum scatters collision quenching rate constant for different quenchers with the biopolymers was reported to be 2 × 10^10 dm^3mol^−1s^−1 [55, 56]. […] Collisional quenching occurs when the excited-state fluorophore is deactivated by contact with some other molecule in solution (by collisions). […] This is a dynamic mechanism of quenching. The quenching constant characterizes the quenching mechanism. The maximum value for collisional quenching is 2 × 10^10 dm^3mol^−1s^−1. […] For further confirmation, measurements were made at, in addition to 297 K, temperatures 303 and 308 K. Experimental data points were fitted and analyzed using Equation (1).
Both for the complexes with BSA and with GGF, the binding constant (Kb) and the binding stoichiometry (n) were calculated. […] The values of Kb and n were calculated from the slope and the intercept of the log [(F0 − F)/F] versus log [Q] plot (Figure 2).
The forces involved in the interaction can be identified by measurement at different temperatures and then by thermodynamic analysis. The signs of the thermodynamic parameters identify the type of interactions. The enthalpy change (ΔH°), the entropic change (ΔS°), and the free energy change (ΔG°) were calculated from Equations (4) and (5):(4) […]=−ΔH^°/RT+ΔS^°/R (5) ΔG^°=ΔH^°−TΔS^°=−RTlnKb where Kb is the binding constant and R is the universal gas constant. To determine the thermodynamic parameters, the van’t Hoff plot was first conducted, i.e., the temperature dependence of the binding constant, according to Equation (4). The Kb values at the three temperatures were fitted by the linear regression method. The values of ΔH and ΔS were calculated from the slope and intercept at the fitted line. Next, the free energy change (ΔG°) was obtained from Equation (5).

[3] = BSA:peptide 1:0.25, pH 7.4 phosphate buffer
[4] = BSA:peptide 1:0.5, pH 7.4 phosphate buffer
[5] = BSA:peptide 1:0.75, pH 7.4 phosphate buffer
[6] = BSA:peptide 1:1, pH 7.4 phosphate buffer
[7] = BSA:peptide 1:1.5, pH 7.4 phosphate buffer

Chain of bovine serum albumin (BSA) (P02769 25-607): as above

Lys-Dab-Dab-Gly-Orn-Pro-His-Lys-Arg-Lys-Dbt [L1]
logKb ([1]; BSA + IBP (site II)): 4.03 ± 0.15
logKb ([1]; BSA + PHB (site I)): 4.00 ± 0.12
% Other of BSA (BSA; [3]): 24.6%
% β-Sheet of BSA (BSA; [3]): 6.0%
% β-Turn of BSA (BSA; [3]): 10.0%
% α-Helix of BSA (BSA; BSA:peptide 1:0.25, pH 7.4 phosphate buffer, room temperature, BSA 1 µM): 59.4%
% Other of BSA (BSA; [4]): 24.8%
% α-Helix of BSA (BSA; [4]): 59.2%
% β-Sheet of BSA (BSA; [4]): 5.9%
% β-Turn of BSA (BSA; [4]): 10.1%
% Other of BSA (BSA; [5]): 25.0%
% α-Helix of BSA (BSA; [5]): 58.6%
% β-Sheet of BSA (BSA; [5]): 6.3%
% β-Turn of BSA (BSA; [5]): 10.1%
% Other of BSA (BSA; [6]): 25.0%
% α-Helix of BSA (BSA; [6]): 58.5%
% β-Sheet of BSA (BSA; [6]): 6.4%
% β-Turn of BSA (BSA; [6]): 10.1%
% Other of BSA (BSA; [7]): 25.1%
% α-Helix of BSA (BSA; [7]): 58.2%
% β-Sheet of BSA (BSA; [7]): 6.6%
% β-Turn of BSA (BSA; [7]): 10.1%
reduction in the percentage of α-helix of BSA (BSA; from 1:0 to 1:1.5 BSA:peptide): 2.5%
Stern–Volmer constant Ksv ([2]; 297 K, inner-filter corrected): 4.24 ± 0.06 × 10^4 dm^3mol^−1
binding constant Kb ([2]; 297 K): 10.10 ± 0.24 × 10^4 dm^3mol^−1
logKb ([2]; 297 K): 5.00 ± 0.12
quenching rate constant kq ([2]; 297 K): 4.24 ± 0.06 × 10^12 dm^3mol^−1s^−1
Stern–Volmer constant Ksv ([2]; 303 K): 4.03 ± 0.13 × 10^4 dm^3mol^−1
binding constant Kb ([2]; 303 K): 6.17 ± 0.25 × 10^4 dm^3mol^−1
logKb ([2]; 303 K): 4.79 ± 0.20
quenching rate constant kq ([2]; 303 K): 4.03 ± 0.13 × 10^12 dm^3mol^−1s^−1
Stern–Volmer constant Ksv ([2]; 308 K): 3.60 ± 0.06 × 10^4 dm^3mol^−1
binding constant Kb ([2]; 308 K): 2.51 ± 0.12 × 10^4 dm^3mol^−1
logKb ([2]; 308 K): 4.39 ± 0.21
quenching rate constant kq ([2]; 308 K): 3.60 ± 0.06 × 10^12 dm^3mol^−1s^−1
